{"source": "patent US20040005352A1", "about": "“Biologically functionalized porous microspheres” (priority 2002, published 2004)", "molecules": {"B1": {"name": "BR: integral membrane protein, light driven proton pump; purple membrane from Halobacterium salinarum (protein, UniProt P02945 14-262, looked up)", "Bacteriorhodopsin": "QAQITGRPEWIWLALGTALMGLGTLYFLVKGMGVSDPDAKKFYAITTLVPAIAFTMYLSMLLGYGLTMVPFGGEQNPIYWARYADWLFTTPLLLLDLALLVDADQGTILALVGADGIMIGTGLVGALTKVYSYRFVWWAISTAAMLYILYVLFFGFTSKAESMRPEVASTFKVLRNVTVVLWSAYPVVWLIGSEGAGIVPLNIETLLFMVLDVSAKVGFGLILLRSRAIFGEAEAPEPSAGDGAAATSD"}}, "key": {"bacteriorhodopsin (BR)": {"molecular_target": "T1, bacteriorhodopsin (BR) (Halobacterium salinarum, UniProt P02945)", "T1 sequence (P02945 14-262)": "B1 Bacteriorhodopsin", "test": "FITC response to illumination of bacteriorhodopsin in the microsphere membrane (flow cytometry)", "conditions": "for Activity of BR within the microsphere (proton pumping): BR in lipid bilayer on mesoporous microspheres, illumination", "excerpt": "The next investigation was to determine whether a integral membrane protein, bacteriorhodopsin (BR) retained its activity and effect a change on the contents of the microporous microsphere. The natural activity of bacteriorhodpsin is to increase the proton concentration (i.e. pH) upon illumination with the appropriate wavelength of light (ca 510 nm).\nThe microspheres were then enveloped with liposomes containing 0.1-5% reconstituted bacteriorhodpsin-containing “purple membrane” from Halobacterium salinarum, in egg phosphatidyl choline."}, "[1]": {"test_system": "lipid bilayer of membrane-enclosed microspheres", "type": "biochemical", "conditions": "pH 7.4"}, "Human DAT protein": {"molecular_target": "Human DAT protein (Homo sapiens, UniProt Q01959)", "sequence (Q01959 whole entry)": "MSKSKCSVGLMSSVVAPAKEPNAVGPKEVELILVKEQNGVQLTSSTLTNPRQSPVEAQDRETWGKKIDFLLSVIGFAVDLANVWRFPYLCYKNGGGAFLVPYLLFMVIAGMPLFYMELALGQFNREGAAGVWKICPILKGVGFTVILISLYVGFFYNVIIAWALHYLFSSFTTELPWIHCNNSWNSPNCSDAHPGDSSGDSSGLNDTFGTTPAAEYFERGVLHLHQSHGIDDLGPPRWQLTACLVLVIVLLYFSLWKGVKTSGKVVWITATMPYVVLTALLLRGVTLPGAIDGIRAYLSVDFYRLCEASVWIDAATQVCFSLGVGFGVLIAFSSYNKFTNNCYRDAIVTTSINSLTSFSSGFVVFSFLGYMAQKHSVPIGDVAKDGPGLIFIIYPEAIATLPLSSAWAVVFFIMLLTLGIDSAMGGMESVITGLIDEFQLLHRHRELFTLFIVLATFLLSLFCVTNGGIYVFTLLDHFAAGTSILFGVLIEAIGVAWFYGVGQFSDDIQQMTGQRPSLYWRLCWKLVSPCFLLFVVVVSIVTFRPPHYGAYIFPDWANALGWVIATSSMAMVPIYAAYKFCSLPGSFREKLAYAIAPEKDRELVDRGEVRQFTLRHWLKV", "conditions": "anticipated; [3H]DA uptake, 3 min at 34° C."}}}
{"molecule": "O=[N+]([O-])[O-].O=[N+]([O-])[O-].O=[N+]([O-])[O-].[Gd+3]", "note": "[Gd(NO3)3, reference compound]", "values": [{"measurement": "Effect on BR", "setting": "bacteriorhodopsin (BR); 3 μM Gd(NO3)3", "result": "inhibitor of BR"}]}
{"molecule": "α-hemolysin", "values": [{"measurement": "Change in Mag-Fluo-4 fluorescence intensity (mean channel fluorescence)", "setting": "[1]", "result": "increase in fluorescence intensity"}]}
{"molecule": "NCCc1ccc(O)c(O)c1", "note": "[dopamine]", "values": [{"measurement": "Vmax", "setting": "Human DAT protein", "result": 9.0, "unit": "pmol/10^5 cells/min"}]}
{"molecule": "B1", "values": [{"measurement": "FITC intensity after several minutes of illumination", "setting": "bacteriorhodopsin (BR); 0.1-5% BR purple membrane in egg phosphatidyl choline, white light", "result": "decreased"}, {"measurement": "Activity of BR within the microsphere (proton pumping)", "setting": "bacteriorhodopsin (BR)", "result": "active"}, {"measurement": "Activity of BR within the microsphere (proton pumping)", "setting": "bacteriorhodopsin (BR); listed as bacteriorhodopsin", "result": "photo-induced proton pumping"}]}
